For orientation: IC50 means the point on the concentration scale where inhibition reaches its midpoint. The viability, T/C is the ratio of treated to control.

Drawing on PubChem BioAssay AID2060894 (Molecular Pharmacology Branch, DTP, NCI, 2025), this text covers IC50 and viability, T/C for two compounds.

“And” between values parts separate entries of the source, which are not always exact repeats. Identical values can stand only once.

In this test the test system is K12877-001-R-J1-PDC complex spheroid viability. The test is described as follows: Anticancer human tumor K12877-001-R-J1-PDC patient-derived lung adenocarcinoma cell line growth inhibition [RAS]. The conditions noted are these: for viability, T/C: stronger effect = lower value. A digest of the protocol:
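Agents were tested in combination matrices in half-log decrements from a top concentration at or near clinical Cmax (10 microM if undetermined). Targets were multi-cell spheroids of tumour lines plus HUVEC and MSC stromal cells.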
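Note: spheroids exposed to agents for one week before readout.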
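Throughout, for viability, T/C: tumour cells co-cultured with HUVEC and mesenchymal stem cells in spheroids.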

For `CC(C)NCC(C(=O)N1CCN(c2ncnc3c2C(C)CC3O)CC1)c1ccc(Cl)cc1` (configuration not stated) + CCn1c(-c2cc(N3CCN(C)CC3)cnc2C(C)OC)c2c3cc(ccc31)-c1csc(n1)CC(NC(=O)C1CC1C)C(=O)N1CCCC(N1)C(=O)OCC(C)(C)C2, the half-maximal inhibitory concentration (IC50) was 7690 nM (curve of first compound, second compound 0.000949 µM); 4360 nM (curve of first compound, second compound 0.003 µM); 1910 nM (curve of first compound, second compound 0.00949 µM); 1190 nM (curve of first compound, second compound 0.03 µM); 717 nM (curve of first compound, second compound 0.0949 µM); 360 nM (curve of first compound, second compound 0.3 µM). The viability, T/C reads like this: (second compound 0.000949 µM, first compound 0.0316 µM) 91.9%; (second compound 0.000949 µM, first compound 0.1 µM) 90.3%; (second compound 0.000949 µM, first compound 0.316 µM) 80.9%; (second compound 0.000949 µM, first compound 1 µM) 104%; (second compound 0.000949 µM, first compound 3.16 µM) 69.3%; (second compound 0.000949 µM, first compound 10 µM) 44.3%. The viability, T/C runs as follows: (second compound 0.003 µM, first compound 0.0316 µM) 73.9%; (second compound 0.003 µM, first compound 0.1 µM) 82.8%; (second compound 0.003 µM, first compound 0.316 µM) 78.3%; (second compound 0.003 µM, first compound 1 µM) 88%; (second compound 0.003 µM, first compound 3.16 µM) 58%; (second compound 0.003 µM, first compound 10 µM) 29.3%. Further, the viability, T/C (second compound 0.00949 µM, first compound 0.0316 µM) is 60.9%; the viability, T/C (second compound 0.00949 µM, first compound 0.1 µM) is 74.3%; the viability, T/C (second compound 0.00949 µM, first compound 0.316 µM) was 74.4%; the viability, T/C (second compound 0.00949 µM, first compound 1 µM) is 74.9%; the viability, T/C (second compound 0.00949 µM, first compound 3.16 µM) was 33.4%; the viability, T/C (second compound 0.00949 µM, first compound 10 µM) was 19.6%. Also, the viability, T/C (second compound 0.03 µM, first compound 0.0316 µM) was 101%; the viability, T/C (second compound 0.03 µM, first compound 0.1 µM) was 103%; the viability, T/C (second compound 0.03 µM, first compound 0.316 µM) is 94.2%; the viability, T/C (second compound 0.03 µM, first compound 1 µM) was 52.9%; the viability, T/C (second compound 0.03 µM, first compound 3.16 µM) is 28.4%; the viability, T/C (second compound 0.03 µM, first compound 10 µM) is 17.1%. Besides, the viability, T/C was 106% (second compound 0.0949 µM, first compound 0.0316 µM); 104% (second compound 0.0949 µM, first compound 0.1 µM); 75.8% (second compound 0.0949 µM, first compound 0.316 µM); 39.5% (second compound 0.0949 µM, first compound 1 µM); 18.8% (second compound 0.0949 µM, first compound 3.16 µM); 12.7% (second compound 0.0949 µM, first compound 10 µM). Also, the viability, T/C is, setting by setting: (second compound 0.3 µM, first compound 0.0316 µM) 101%; (second compound 0.3 µM, first compound 0.1 µM) 78.6%; (second compound 0.3 µM, first compound 0.316 µM) 55%; (second compound 0.3 µM, first compound 1 µM) 27.2%; (second compound 0.3 µM, first compound 3.16 µM) 17.1%; (second compound 0.3 µM, first compound 10 µM) 10.9%.

For the compound `CC(C)n1nc(-c2ccc3oc(N)nc3c2)c2c(N)ncnc21`, the viability, T/C (compound 0.000316 µM) is 105% [middle of 4 runs]; the viability, T/C (compound 0.00316 µM) is 98.2% [middle of 4 runs]; the viability, T/C (compound 0.0316 µM) is 41.3% [middle of 4 runs]; the viability, T/C (compound 0.1 µM) was 15.5% and 26.6% (2×) and 20%. The IC50 (curve of compound) is 25.1 nM [middle of 4 runs].
